According to patent US12595503B2, “Reference dataset-based, spectrometric characterization of cell substrates using sub-libraries” (priority 2021, dated 2026):

System: E. coli
Assay: MALDI-TOF (MALDI Biotyper) growth-based resistance/susceptibility determination of the test cell substrate in CTX-containing Mueller-Hinton nutrient medium
Set-up: species or system Escherichia coli
Details: CTX 1 μg/mL; for logarithm of the similarity measure (log(score)), best match of second preparation: 4 h incubation
From the text: As proof of principle for the feasibility of the disclosed procedure, a cefotaxime-susceptible E. coli was selected as the test cell substrate and applied to the determination of a characteristic of the microorganism under investigation using a MALDI Biotyper® system. For this purpose, the resistance/susceptibility of the test cell substrate to a growth-influencing substance, in this example the antibiotic cefotaxime (CTX), was investigated using a prior art method and the method disclosed herein.
The test cell substrate was incubated in nutrient medium, Mueller-Hinton nutrient medium (first preparation—FIG. 2), and the same nutrient medium containing CTX at a concentration of 1 μg/mL (second preparation—FIGS. 3 and 4). The first preparation served as a growth control. The second preparation was used to determine the resistance/susceptibility of the test cell substrate to CTX.
To create the preparations, a large volume (stock suspension) of a cell suspension, here about 12 mL, otherwise regularly 10 to 50 mL, of the test cell substrate was prepared in Mueller-Hinton nutrient medium, a liquid nutrient medium. The concentration of the test cell substrate in the stock suspension was determined densitometrically in order to use an appropriate and equal amount of the test cell substrate for the first and second preparations. A small volume was taken from this stock suspension for the first preparation and transferred to a well of a microtiter plate. Since the first preparation was designed as a growth control, no antibiotic was present in the well. Simultaneously, for a second preparation, the same volume of stock suspension was removed and transferred to another well of the microtiter plate, thereby dissolving the antibiotic CTX, which was present in dried form in the well of the second preparation, for a final concentration of 1 μg/mL. The microtiter plate was then agitated to ensure complete dissolution and homogeneous distribution of the antibiotic in the cavity of the second preparation. Further preparations in the form of a concentration-dilution series for determining of a minimum inhibitory concentration (MIC) of the antibiotic CTX is easy to generate by selectively dissolving the dried CTX in additional wells of the microtiter plate. For example, a CTX concentration of 0.5 μg/mL can be set in the Mueller-Hinton nutrient medium in a third well for another preparation, and a CTX concentration of 2 μg/mL can be set in a fourth well for yet another preparation. Thus, the dilution series can comprise the CTX concentrations 0.5, 1 and 2 μg/mL, while additional dilution steps, e.g., 0.25 or 4 μg/mL can be included. Such a dilution series can also be performed in dilution steps of different sizes of the CTX concentration. […]

CO/N=C(\C(=O)N[C@@H]1C(=O)N2C(C(=O)O)=C(COC(C)=O)CS[C@H]12)c1csc(N)n1 [CTX, cefotaxime] was tested, and the “logarithm of the similarity measure (log(score)), best match of second preparation” value (compared with entire reference library (prior art method), best match Citrobacter farmeri, >=1.7 read as growth/resistance) was 1.83, the “logarithm of the similarity measure (log(score)), best match of second preparation” value (compared with first sub-library (five best E. coli reference datasets), <1.7 read as no growth/susceptibility) was 1.13 and the “property resistance or susceptibility to CTX” value (compared with entire reference library (prior art method), patent calls this result false-positive) was “CTX-resistant”. For the same compound, the “property resistance or susceptibility to CTX” value (compared with first sub-library (method of the invention)) was “CTX-susceptible”.
